In patent EP4786486A1, “PEPTIDES FOR TREATING CARDIAC DISEASES” (Universidad Complutense De Madrid, priority 2023, dated 2025):
Where two headings read alike, the source gives them in different places. Where no end group is shown, it is not given here.

How the values were obtained:
[1] = test system: dissociated cardiomyocytes from Sham and TAC mice; assay: INa density in dissociated cardiomyocytes, murine TAC model of HFrEF; type: in vivo; conditions: pre-treatment with DECA-11 (AAV9)
Description: (§1) A murine model of CI with reduced ejection fraction (HFrEF) was used to analyse the effect of SEQ ID NO: 3 on the decrease in INa and IK1 caused by electrical remodelling associated with Cl. The mice are subjected to transverse aortic constriction (TAC) with ligation, and pressure overload leads to the occurrence of cardiac hypertrophy and Cl. The mice were produced at the Medical Research Centre of the University of Navarra (CIMA), under the direction of Dr Aránzazu González Miqueo.
(§2) Eight-week-old mice were administered 3.5×10^10 particles of adeno-associated virus type 9 that encoded either the fluorescent reporter td-Tomato (Aav-dt-T) alone, or the reporter and the peptide DECA-11. At 12 weeks of age, an echocardiographic check-up (baseline) was performed and at week 13 they underwent surgery in which the aorta was ligated (TAC animals) or not (Sham animals).
That same week they were sent to the UCM animal facility. Next, the mice were heparinised and anaesthetised and then sacrificed by cervical dislocation, at a rate of one per day, and a thoracotomy was performed to remove the heart which was mounted through the aorta into a cannula connected to a Langendorff apparatus for enzymatic dissociation of the cardiac myocytes. […]

[2] = test system: dissociated cardiomyocytes from Sham and TAC mice; assay: IK1 density in dissociated cardiomyocytes, murine TAC model of HFrEF; type: in vivo; conditions: for IK1: administration of DECA-11 (AAV9)
Description: as §1, §2
That same week they were sent to the UCM animal facility. Next, the mice were heparinised and anaesthetised and then sacrificed by cervical dislocation, at a rate of one per day, and a thoracotomy was performed to remove the heart which was mounted through the aorta into a cannula connected to a Langendorff apparatus for enzymatic dissociation of the cardiac myocytes. After removal of the heart, said heart was cannulated through the aorta and placed in a Langendorff apparatus. First, the hearts were perfused with modified Tyrode's solution (composition in mM: 136 NaCI, 4 KCI, 2 MgCl2, 1.8 CaCl2, 10 HEPES, 10 glucose, 3 pyruvic acid and 0.1 thiamine, pH=7.4 with NaOH) bubbled with oxygen and at 37°C for 3-5 minutes. Subsequently, they were perfused for another 8 minutes with the same solution without CaCl2. After 1-2 minutes, the heart stops beating. Next, they were perfused with Tyrode's solution without CaCl2 supplemented with 120 u/ml collagenase type II from Worthington and 0.5 u/ml protease XIV from Sigma. […]
As indicated above, IK1 was also recorded in mouse cardiomyocytes from all four groups. […] In fact, the density of IK1 in TAC animals pretreated with DECA-11 is not different from that recorded in Sham animals.

[3] = test system: human iPSC-derived cardiomyocytes; conditions: hiPSC-CM; sustained current sensitive to TTX (10 µM), as percentage of the current peak; 500 ms pulses from -120 to -45 mV
[4] = test system: human iPSC-derived cardiomyocytes; assay: INa, IK1 and INaL by patch-clamp in cardiomyocytes infected with adeno-associated virus encoding the peptide; type: cell-based; conditions: hiPSC-CM
Description: One-way ANOVA followed by the Tukey test.

[5] = test system: human minimal promoter of the KCNJ2 gene; assay: Luciferase assay in hEK-293 cells, minimal promoter of KCNJ2; type: cell-based; conditions: hEK-293, co-transfected with cDNA SEQ ID NO: 5, 48 hours
Method: 48 hours after transfection, luciferase assays were performed using the LightSwitch Luciferase Assay reagent, also from Active Motif, and a Berthold luminometer. All assays were performed in triplicate and each point represents the mean of each technical triplicate.

[6] = infection 48 hours before recording, vs Ad-td-Tomato

| Sequence | density of INa ([1]; TAC cardiomyocytes) | density of INa ([1]; cardiomyocytes from Sham animals) | IK1 ([2]; Sham animals) | density of IK1 compared with that recorded in Sham animals ([2]; TAC animals pretreated with DECA-11 vs. Sham animals) | IK1 ([2]; TAC animals) | INaL [3] | INaL ([4]; TTX (10 µM) sensitive sustained current as percentage of the current peak) | density of IK1 [4, 6] | density of INa [4, 6] | effect on the minimal promoter of the human KCNJ2 gene [5] |
| --- | --- | --- | --- | --- | --- | --- | --- | --- | --- | --- |
| RFTRESLAAIE (listed as Homo sapiens) [SEQ ID NO: 3] | significantly and markedly increased | increased | significantly increases | not different | significantly increases | does not increase |  |  |  |  |
| RFTRESLAAIE [DECA-11, RFTRESLAAIE] |  |  |  |  |  |  | does not increase INaL | significantly increase the density of INa and IK1 | significantly increase the density of INa and IK1 | protranscriptional effect |
